Reference: patent US20220362311A1, “OPTIMIZED BACTERIA ENGINEERED TO TREAT DISORDERS INVOLVING THE CATABOLISM OF LEUCINE, ISOLEUCINE, AND/OR VALINE” (Synlogic Operating Company, Inc., priority 2019, published 2022)
Where two headings read alike, the source gives them in different places.

B1: ADH2 enzyme from S. cerevisiae: parent alcohol dehydrogenase ADH2 from S. cerevisiae (protein, UniProt P00331 2-348, looked up)
Alcohol dehydrogenase 2: SIPETQKAIIFYESNGKLEHKDIPVPKPKPNELLINVKYSGVCHTDLHAWHGDWPLPTKLPLVGGHEGAGVVVGMGENVKGWKIGDYAGIKWLNGSCMACEYCELGNESNCPHADLSGYTHDGSFQEYATADAVQAAHIPQGTDLAEVAPILCAGITVYKALKSANLRAGHWAAISGAAGGLGSLAVQYAKAMGYRVLGIDGGPGKEELFTSLGGEVFIDFTKEKDIVSAVVKATNGGAHGIINVSVSEAAIEASTRYCRANGTVVLVGLPAGAKCSSDVFNHVVKSISIVGSYVGNRADTREALDFFARGLVKSPIKVVGLSSLPEIYEKMEKGQIAGRYVVDTSK

Assays:
rat = settings: cited from earlier work
[1] = High-throughput Adh activity assay in E. coli cell lysates; format: biochemical; settings: reduction of isovaleraldehyde to isopentanol; secondary screen
Procedure: Cell growth and enzyme preparation. Strains harboring library plasmids were transformed into an E. coli T7 expression host. 5 μL/well of thawed glycerol stocks were stamped into 500 μL/well of LB+100 ug/mL Carbenicillin (LB-Carb100) in half-height deepwell plates, which were sealed with AeraSeals. Samples were incubated at 37° C. and shaken at 1000 RPM in 80% humidity overnight. 50 μL/well of the resulting precultures were stamped into 450 μL/well of LB-Carb100+1 mM IPTG in half-height deepwell plates, which were sealed with AeraSeals. Samples were incubated at 30° C. and shaken at 1000 RPM in 80% humidity overnight. […]
10 uL of lysate was transferred to a half-area flat-bottom plate containing 90 uL/well assay buffer (50 mM MOPS buffer, 0.4 mM NADH, and 30 mM isovaleraldehyde, pH 7.0). Optical absorbance measurements were taken on a plate reader at 340 nm for 10 minutes. […]
To screen the 3×˜1300-member enzyme libraries, high-throughput methods were developed to screen for LeuDH, KivD, and Adh enzyme activities in E. coli cell lysates. […] Cells were lysed, and enzyme activity was measured in cell lysates using enzyme-specific spectrophotometric assays described above in the method section. […]
For each enzyme family, the full library (˜1300 members each) was measured in biological duplicate, and hits were selected based on the highest activity in a single replicate for each enzyme. […]

Row | Molecule | Oral LD50 (rat) (rat; oral) | also measured
1 | CC(C)CO [Isobutanol] | 3350 mg/kg | Oral NOAEL* (rat) (No-Observed-Adverse-Effect) (rat; oral): >1450 mg/kg/day
2 | CC(C)C(=O)O [Isobutyric acid] | 2230 mg/kg | 
3 | CCC(C)CO (stereo not drawn) [2-methylbutanol] | 4170 mg/kg | 
4 | CCC(C)C=O (stereo not drawn) [2-methylbutyraldehyde] | 6884 mg/kg | 
5 | CC(C)CCO [Isopentanol] | >5000 mg/kg | Oral NOAEL* (rat) (No-Observed-Adverse-Effect) (rat; in vivo, po): 1250 mg/kg/day
6 | CC(C)CC=O [Isovaleraldehyde] | 5740 mg/kg | 
7 | B1 |  | increase in Adh activity relative to the background lysate activity [1]: did not exhibit activity greater than the background lysate alcohol dehydrogenase activity
